Data published in patent US20230329237A1, “MUSA PLANTS, FIELDS […] PLANTS” (Taminco BV, priority 2020, published 2023).

What was measured:
parasitic nematodes = assay: Nematode analysis of soil samples from the treated field; format: in vivo; details: any tested soil samples
Procedure: (§1) Soil Analysis. Soil samples were obtained at 20, 40, and 60 cm before application and every 24 hours beginning 48 hours after application, for seven days.
Plant Pathology Analysis. Soil samples used for Panama Disease and nematode analyses were aseptically isolated in culture medium and incubated for seven days at room temperature. Organisms were identified as follows: 20 grams of composite soil sample was diluted with 40 mL distilled water (dH2O); 1 drop of Tween 20 detergent was added, and the sample mixed. A 1 mL aliquot was taken from the solution and diluted with 9 mL dH2O; three further serial dilutions were made. From each dilution, 100 μL were spread on solid Komada growth medium (Sun et al., Phytopathology 68: 1672-1673, 1978). Growth could be seen 7 days after inoculation.

Cavendish banana plants = assay: Field trial: growth and development of banana plants transplanted into metam sodium treated soil; format: in vivo, Musa (Cavendish banana)
Procedure: The analyses described in this example were carried out in the Philippines in a field in which Musa trees (specifically bananas) were to be planted, in the spring (beginning in March). Final determinations were carried out in September of the same year.
(§2) Metam Sodium Application. Metam sodium 510 SL (equivalent to 42% w/w) was applied to soil at the following doses: 0 liters per hectare (L/ha), 750 L/ha, 1500 L/ha, 2250 L/ha, 3000 L/ha.
(§3) Prior to injection, soil was prepared using a rototiller to break the soil structure from 0 cm to 80 cm deep, allowing for the smooth and even injection application by an injection machine. The soil was then leveled and made uniform, and the metam sodium was applied at two depths: 30 cm and 60 cm, using injection methods. The temperature was at a minimum of 10 °C and soil humidity was between 50 and 60% holding capacity, allowing the applied product to transform from metam sodium (liquid) to MITC (gas).
(§4) The application was made using an injection machine wherein the machine lowered shanks and began moving forward such that the shanks lowered to a depth of 60 cm and injectors applied the metam sodium into the soil. When the injection at 60 cm was complete, the process was repeated for the entire field at 30 cm. The treated soil in the field was then sealed using a packer roller (which was part of the injection machinery, located at the back end of the machine), after each application.
Plant Selection and Transplantation. Cavendish banana plants were used for this investigation. In order to avoid plants already contaminated by other soil, all plants were produced in vitro using art-recognized methods. Plants were transplanted into the field 14 days after the final soil reading was taken (21 days after treatment).
Data Gathering. Data were gathered at monthly intervals beginning three months after banana plants were transplanted. A total of three data collection sessions were conducted. Data including the number of leaves, plant height, and girth size were collected.

[1] = system: F. oxysporum f. sp. cubense; assay: Panama disease analysis of soil samples from the treated field (Komada medium); format: in vivo, Fusarium oxysporum f. sp. cubense Tropical Race 4; details: any of the treated groups (750-3000 L/ha); any day post application
Procedure: as §2, §3, §4, §1
Plant Pathology Analysis. […]

Foc TR4 chlamydospores = assay: In vitro efficacy of metam sodium on Foc TR4 chlamydospores (colonies on PDA plates); format: cell-based, Fusarium oxysporum f. sp. cubense Tropical Race 4
Procedure: Foc TR4 chlamydospores were extracted from infested soil and incubated with a dilution series of metam sodium for 5 min and 60 min at room temperature. Thereafter, the samples were diluted 10×to get reduction of the treatment and sufficient dilution of chlamydospores to avoid lack of resolution when grown on plate. Aliquots of 100 μl were plated on PDA plates in duplicate and incubated for 3 days at 25° C. Plates were photographed and scored.

[2] = 750 L/ha, six months after treatment
[3] = 1500 L/ha, six months after treatment
[4] = 2250 L/ha, six months after treatment
[5] = 3000 L/ha, six months after treatment

`CNC(=S)[S-].[Na+]` [metam sodium, sodium N-methyldithiocarbamate] was tested, and the “parasitic nematodes in soil” value (parasitic nematodes) was “no parasitic nematodes were noted”, the “average girth size of banana plant, increase” value (Cavendish banana plants; 750 L/ha) was ~1 cm and the “average height of banana plant, increase” value (Cavendish banana plants; 750 L/ha) was ~5 cm. For the same molecule, the “percent of plants at either shooting or bagging stage” value (Cavendish banana plants; [2]) was 11%, the “percent of plants at shooting stage” value (Cavendish banana plants; [2]) was 9% and the “plants reaching bagging stage” value (Cavendish banana plants; [2]) was “did not have a meaningful effect”. For the same molecule, the “average girth size of banana plant, increase” value (Cavendish banana plants; 1500-3000 L/ha) was 4-6 cm, the “average height of banana plant, increase” value (Cavendish banana plants; 1500-3000 L/ha) was 20-23 cm and the “percent of plants at either shooting or bagging stage” value (Cavendish banana plants; [3]) was 28%. For the same molecule, the “percent of plants at shooting stage” value (Cavendish banana plants; [3]) was 10%, the “percent of plants at bagging stage” value (Cavendish banana plants; 1500 to 3000 L/ha, six months after treatment) was 11-19% and the “percent of plants at either shooting or bagging stage” value (Cavendish banana plants; [4]) was 27%. For the same molecule, the “percent of plants at shooting stage” value (Cavendish banana plants; [4]) was 17%, the “percent of plants at either shooting or bagging stage” value (Cavendish banana plants; [5]) was 35% and the “percent of plants at shooting stage” value (Cavendish banana plants; [5]) was 22%. For the same molecule, the “average number of leaves, increase” value (Cavendish banana plants; regardless of dose applied (750-3000 L/ha), vs 0 L/ha) was “roughly 1.5 fold”, the “Foc TR4 in soil (soil contamination)” value [1] was “No Foc TR4 was detected” and the “reducing the number of surviving chlamydospores, measured as growing colonies” value (Foc TR4 chlamydospores; 100× dilution, prolonged incubation (60 vs 5 minutes)) was “more effective”. The “efficacy on Foc TR4 colony growth on plates” value (Foc TR4 chlamydospores; dilution of 10×, incubation time 5 minutes) was “effective”, the “efficacy on Foc TR4 colony growth on plates” value (Foc TR4 chlamydospores; dilution of 100×, 5 and 60 minutes) was “less effective” and the “reduction in viability of Foc TR4 chlamydospores” value (Foc TR4 chlamydospores; first test, dilutions from 1000 up to 10×10^6-fold, 60 min) was “No significant reduction in viability”. The “efficacy against Foc TR4 chlamydospores under in vitro conditions” value (Foc TR4 chlamydospores; overall, dependent on high concentrations) was “effective against Foc TR4 chlamydospores”, the “efficacy on surviving chlamydospores” value (Foc TR4 chlamydospores; second test, 10× and 100× dilutions) was “(partially) effective” and the “number of chlamydospores that survived” value (Foc TR4 chlamydospores; second test, dilutions of 1000× and more) was “did not affect the number of chlamydospores that survived”.
